Results: ChEMBL document CHEMBL1949520, “Synthesis of terphenyl benzimidazoles as tubulin polymerization inhibitors” (2012)

How the values were obtained:
Format in all cases: functional
KB = assay: Growth inhibition of human KB cells by SRB assay
MCF7 = assay: Growth inhibition of human MCF7 cells by SRB assay
PC-3 = assay: Growth inhibition of human PC3 cells by SRB assay
ZR-75-1 = assay: Growth inhibition of human ZR-75-1 cells by SRB assay
COLO 205 = assay: Growth inhibition of human COLO205 cells by SRB assay
HOP-62 = assay: Growth inhibition of human HOP62 cells by SRB assay
[1] = Growth inhibition of human Gurav cells by SRB assay
SiHa = assay: Growth inhibition of human SiHa cells by SRB assay
[2] = Growth inhibition of human DWD cells by SRB assay
A2780 = assay: Growth inhibition of human A2780 cells by SRB assay
A549 = assay: Growth inhibition of human A549 cells by SRB assay

Row | Structure (SMILES) | GI50 (KB) | GI50 (MCF7) | GI50 (PC-3) | GI50 (COLO 205) | GI50 (A2780) | GI50 (A549) | GI50 (ZR-75-1) | GI50 (HOP-62) | GI50 [1] | GI50 (SiHa) | GI50 [2]
1 | COc1ccc(-c2ccc(-c3ccc(-c4nc5c(O)cccc5[nH]4)cc3)cc2)cc1OC | 2.71 µM | 0.19 µM | 1.24 µM | 1.32 µM | 2.71 µM | 1.31 µM | 2.11 µM | 2.21 µM | 1.11 µM | 1.11 µM | 1.4 µM
2 | COc1ccc(-c2ccc(-c3ccc(-c4nc5c(O)cccc5[nH]4)cc3)cc2)cc1 | 4.9 µM | 3.11 µM | 6.61 µM | 1.63 µM | 8.64 µM | 7.69 µM | 8.2 µM | 3.21 µM | 6.63 µM | 4.8 µM | 6.4 µM
3 | Cc1ccc2[nH]c(-c3ccc(-c4ccc(-c5cccc(Cl)c5)cc4)cc3)nc2c1 | 2.26 µM | 1.21 µM | 2.67 µM | 2.78 µM | 2.8 µM | 2.8 µM | 3.45 µM | 2.74 µM | 2.12 µM | 3.6 µM | 2.51 µM
4 | Oc1cccc2[nH]c(-c3ccc(-c4ccc(-c5cccc(Cl)c5)cc4)cc3)nc12 | 2.28 µM | 3.42 µM | 2.56 µM | 8.6 µM | 2.8 µM | 2.4 µM | 2.41 µM | 2.26 µM | 2.31 µM | 8.4 µM | 2.1 µM
5 | COc1cc(-c2ccc(-c3ccc(-c4nc5ccccc5[nH]4)cc3)cc2)cc(OC)c1OC | 2.98 µM | 6.38 µM | 9.72 µM | 8.32 µM | 9.21 µM | 2.11 µM | 9.71 µM | 9.43 µM | 7.1 µM | 4.98 µM | 8.01 µM
6 | CN(C)c1ccc(-c2ccc(-c3ccc(-c4nc5c(O)cccc5[nH]4)cc3)cc2)cc1 | 4.2 µM | 2.31 µM | 8.42 µM | 6.32 µM | 3.01 µM | 7.1 µM | 4.1 µM | 8.25 µM | 8.21 µM | 6.24 µM | 9.21 µM
7 | Oc1cccc2[nH]c(-c3ccc(-c4ccc(-c5ccc(OC(F)(F)F)cc5)cc4)cc3)nc12 | 3.31 µM | 2.21 µM | 7.41 µM | 8.32 µM | 2.9 µM | 0.19 µM | 3.8 µM | 2.27 µM | 3.6 µM | 8.41 µM | 3.1 µM
8 | COc1ccc(-c2ccc(-c3ccc(-c4nc5cc(C)ccc5[nH]4)cc3)cc2)cc1OC | 2.19 µM | 0.19 µM | 2.56 µM | 2.32 µM | 2.13 µM | 2.1 µM | 3.1 µM | 2.12 µM | 1.31 µM | 3.51 µM | 1.72 µM
9 | Oc1cccc2[nH]c(-c3ccc(-c4ccc(-c5ccc(F)cc5)cc4)cc3)nc12 | 6.92 µM | 3.01 µM | 15.3 µM | 1.22 µM | 41.2 µM | 0.17 µM | 6.32 µM | 8.31 µM | 2.86 µM | 9.1 µM | 22.2 µM
10 | Cc1ccc2[nH]c(-c3ccc(-c4ccc(-c5ccc(N(C)C)cc5)cc4)cc3)nc2c1 | 6.24 µM | 3.13 µM | 8.12 µM | 9.21 µM | 2.21 µM | 3.51 µM | 7.2 µM | 4.23 µM | 6.24 µM | 7.11 µM | 3.23 µM
11 | Oc1cccc2[nH]c(-c3ccc(-c4ccc(-c5ccc(C(F)(F)F)cc5)cc4)cc3)nc12 | 4.32 µM | 2.31 µM | 2.26 µM | 3.41 µM | 6.1 µM | 3.61 µM | 5.11 µM | 3.2 µM | 3.19 µM | 3.72 µM | 3.18 µM
12 | COc1cccc2c1C(=O)c1c(O)c3c(c(O)c1C2=O)C[C@@](O)(C(=O)CO)C[C@@H]3O[C@H]1C[C@H](N)[C@H](O)[C@H](C)O1 [DOXORUBICIN] | 0.17 µM | 0.17 µM | – | 0.14 µM | 0.16 µM | – | – | 0.14 µM | 0.17 µM | 0.14 µM | 0.1 µM

Continued, in another order:

Row | GI50 (KB) | GI50 (MCF7) | GI50 (PC-3) | GI50 (COLO 205) | GI50 (A2780) | GI50 (A549) | Structure (SMILES) | GI50 (ZR-75-1) | GI50 (HOP-62) | GI50 [1] | GI50 (SiHa) | GI50 [2]
13 | 32.1 µM | 31.6 µM | 100 µM | 2.56 µM | 41.2 µM | 3.63 µM | Cc1ccc2[nH]c(-c3ccc(-c4ccc(-c5ccccc5)cc4)cc3)nc2c1 | 27.4 µM | 39.3 µM | 3.31 µM | 35.2 µM | 28.3 µM
14 | 21.2 µM | 12.1 µM | 30 µM | 100 µM | 31.2 µM | 3.52 µM | Cc1ccc2[nH]c(-c3ccc(-c4ccc(-c5ccc(O)cc5)cc4)cc3)nc2c1 | 18.2 µM | 41.2 µM | 11.3 µM | 33.5 µM | 21.2 µM
15 | 39.1 µM | 38.4 µM | 100 µM | 100 µM | 100 µM | 38 µM | FC(F)(F)Oc1ccc(-c2ccc(-c3ccc(-c4nc5ccccc5[nH]4)cc3)cc2)cc1 | 100 µM | 100 µM | 100 µM | 38.4 µM | 100 µM
16 | 32.3 µM | 36.3 µM | 33.7 µM | 100 µM | 31.1 µM | 31.1 µM | Clc1cccc(-c2ccc(-c3ccc(-c4nc5ccccc5[nH]4)cc3)cc2)c1 | 41.2 µM | 100 µM | 2.19 µM | 100 µM | 100 µM
17 | 47.2 µM | 41.4 µM | 45.2 µM | 33.9 µM | 100 µM | 36.6 µM | FC(F)(F)c1ccc(-c2ccc(-c3ccc(-c4nc5ccccc5[nH]4)cc3)cc2)cc1 | 48.3 µM | 100 µM | 39.1 µM | 100 µM | 100 µM
18 | 41 µM | 30.5 µM | 47 µM | 100 µM | 36 µM | 33.1 µM | Oc1ccc(-c2ccc(-c3ccc(-c4nc5ccccc5[nH]4)cc3)cc2)cc1 | 100 µM | 47.2 µM | 100 µM | 33.3 µM | 46.3 µM
19 | 47.2 µM | 33.3 µM | 100 µM | 45.2 µM | 100 µM | 38.1 µM | COc1ccc(-c2ccc(-c3ccc(-c4nc5ccccc5[nH]4)cc3)cc2)cc1 | 35.1 µM | 100 µM | 38.1 µM | 2.76 µM | 100 µM
20 | 4.01 µM | 2.2 µM | 1.24 µM | 1.21 µM | 41 µM | 8.32 µM | Oc1cccc2[nH]c(-c3ccc(-c4ccc(-c5ccccc5)cc4)cc3)nc12 | 35.6 µM | 9.04 µM | 1.11 µM | 9.71 µM | 9.68 µM
